Laboratory results: PubChem BioAssay AID248 (DTP/NCI, 2004)
“And” between values parts separate entries of the source, which are not always exact repeats. Identical values can stand only once. Toxic doses and inconclusive results are not listed. No stated cut-off is given here; in the data, active means T/C of 150% or more; inactive means T/C below 125%. Square brackets hold non-standard residues; d marks the D form. Peptide text beside a SMILES is read from it. * marks the point of attachment. NMeY = CN[CH](Cc1ccc(O)cc1)C(=O)O; Bn = c1ccc(C*)cc1

System: L1210 leukemia ip in BDF1 mice, survival T/C
Test: NCI In Vivo Anticancer Drug Screen. Data for tumor model L1210 Leukemia (intraperitoneal) in B6D2F1 (BDF1) mice
Conditions: endpoint: mean survival time, higher = longer survival
How it was run: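 Antitumor effect is assessed in tumor-bearing animals. Survival in the compound arm is compared with a vehicle-dosed control arm and expressed as their quotient.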

[1] = dose: 100.0 mg/kg/injection, schedule: Q01DX009 (ip), vehicle: saline
[2] = dose: 100.0 mg/kg/injection, schedule: Q04DX003 (ip), vehicle: Klucel (hydroxypropylcellulose) (HPC)
[3] = dose: 200.0 mg/kg/injection, schedule: Q04DX003 (ip), vehicle: Klucel (hydroxypropylcellulose) (HPC)
[4] = dose: 400.0 mg/kg/injection, schedule: Q04DX003 (ip), vehicle: Klucel (hydroxypropylcellulose) (HPC)
[5] = dose: 100.0 mg/kg/injection, schedule: Q01DX009 (ip), vehicle: Klucel (hydroxypropylcellulose) (HPC)
[6] = dose: 100.0 mg/kg/injection, schedule: Q04DX003 (ip), vehicle: saline with Tween-80
[7] = dose: 200.0 mg/kg/injection, schedule: Q04DX003 (ip), vehicle: saline with Tween-80
[8] = dose: 100.0 mg/kg/injection, schedule: Q01DX009 (ip), vehicle: saline with Tween-80
[9] = dose: 200.0 mg/kg/injection, schedule: Q01DX009 (ip), vehicle: saline with Tween-80
[10] = dose: 400.0 mg/kg/injection, schedule: Q01DX009 (ip), vehicle: saline with Tween-80
[11] = dose: 100.0 mg/kg/injection, schedule: Q04DX002 (ip), vehicle: Klucel (hydroxypropylcellulose) (HPC)
[12] = dose: 200.0 mg/kg/injection, schedule: Q04DX002 (ip), vehicle: Klucel (hydroxypropylcellulose) (HPC)
[13] = dose: 400.0 mg/kg/injection, schedule: Q04DX002 (ip), vehicle: Klucel (hydroxypropylcellulose) (HPC)

Measured: T/C

CNC(Cc1ccc(OCc2ccccc2)cc1)C(=O)NC(CC(C)C)C(=O)OC (configuration not stated) (H-[NMeY](Bn)-Leu-OMe; configuration not given here)
inactive: dose: 50.0 mg/kg/injection, schedule: Q01DX009 (ip), vehicle: saline 97 % of control | [1] 100 % of control | dose: 100.0 mg/kg/injection, schedule: Q04DX003 (ip), vehicle: saline 104 % of control | dose: 200.0 mg/kg/injection, schedule: Q04DX003 (ip), vehicle: saline 102 % of control

O=c1cc(-c2ccccc2)sc(-c2ccccc2)c1
inactive: dose: 75.0 mg/kg/injection, schedule: Q04DX003 (ip), vehicle: saline 100 % of control | [2] 103 % of control | dose: 150.0 mg/kg/injection, schedule: Q04DX003 (ip), vehicle: saline 95 % of control | [3] 105 % of control | dose: 300.0 mg/kg/injection, schedule: Q04DX003 (ip), vehicle: saline 92 % of control | [4] 103 % of control

OC(CCN1CCOCC1)c1cc2ccccc2o1 (configuration not stated)
inactive: dose: 75.0 mg/kg/injection, schedule: Q04DX003 (ip), vehicle: saline with Tween-80 102 % of control | dose: 150.0 mg/kg/injection, schedule: Q04DX003 (ip), vehicle: saline with Tween-80 100 % of control

N#Cc1ccc(OCCCOc2ccc([N+](=O)[O-])cc2)cc1
inactive: [2] 106 % of control | [3] 100 % of control | [4] 103 % of control

CC(=O)N(C)c1ccc(NC(=O)CCl)cc1
inactive: [5] 109 % of control | dose: 200.0 mg/kg/injection, schedule: Q01DX009 (ip), vehicle: Klucel (hydroxypropylcellulose) (HPC) 116 % of control

CCOC(=O)[CH2][Sn]([Br])([Br])[CH2]C(=O)OCC
inactive: dose: 100.0 mg/kg/injection, schedule: Q04DX002 (ip), vehicle: saline with Tween-80 94 % of control | dose: 200.0 mg/kg/injection, schedule: Q04DX002 (ip), vehicle: saline with Tween-80 89 % of control

C1CCN[N-]C1.C1CCN[N-]C1.[Cl][Pt+2]([Cl])([Cl])[Cl]
inactive: dose: 25.0 mg/kg/injection, schedule: Q04DX003 (ip), vehicle: water 111 % of control | dose: 50.0 mg/kg/injection, schedule: Q04DX003 (ip), vehicle: water 102 % of control | dose: 100.0 mg/kg/injection, schedule: Q04DX003 (ip), vehicle: water 102 % of control

CCN(CC)C(=O)Nc1cccc(OC(=O)NC)c1
inactive: [6] 99 % of control | [7] 98 % of control

CC(=O)N/N=C/c1ccc([N+](=O)[O-])s1
inactive: [6] 94 % of control

Fc1c(F)c(F)c(Oc2c(F)c(F)c(P(c3c(F)c(F)c(Oc4c(F)c(F)c(F)c(F)c4F)c(F)c3F)c3c(F)c(F)c(Oc4c(F)c(F)c(F)c(F)c4F)c(F)c3F)c(F)c2F)c(F)c1F
inactive: dose: 75.0 mg/kg/injection, schedule: Q04DX003 (ip), vehicle: Klucel (hydroxypropylcellulose) (HPC) 104 % of control | dose: 150.0 mg/kg/injection, schedule: Q04DX003 (ip), vehicle: Klucel (hydroxypropylcellulose) (HPC) 91 % of control | dose: 300.0 mg/kg/injection, schedule: Q04DX003 (ip), vehicle: Klucel (hydroxypropylcellulose) (HPC) 90 % of control

CCC(/C=N/N=C(N)N)OC (configuration not stated)
inactive: dose: 2.0 mg/kg/injection, schedule: Q01DX Z (oral), vehicle: saline 103 % of control | dose: 4.0 mg/kg/injection, schedule: Q01DX Z (oral), vehicle: saline 101 % of control | dose: 8.0 mg/kg/injection, schedule: Q01DX Z (oral), vehicle: saline 106 % of control | dose: 16.0 mg/kg/injection, schedule: Q01DX Z (oral), vehicle: saline 100 % of control | dose: 32.0 mg/kg/injection, schedule: Q01DX Z (oral), vehicle: saline 110 % of control | dose: 64.0 mg/kg/injection, schedule: Q01DX Z (oral), vehicle: saline 100 % of control | dose: 128.0 mg/kg/injection, schedule: Q01DX Z (oral), vehicle: saline 104 % of control and 113 % of control | dose: 256.0 mg/kg/injection, schedule: Q01DX Z (oral), vehicle: saline 98 % of control and 115 % of control

Cc1cnc2c(N)nn(-c3ccccc3)c2n1
inactive: [8] 93 % of control | [6] 95 % of control | [9] 101 % of control | [7] 97 % of control | [10] 98 % of control | dose: 400.0 mg/kg/injection, schedule: Q04DX003 (ip), vehicle: saline with Tween-80 94 % of control

CCCOC(=O)c1ccc(NCC(C)(C)[N+](=O)[O-])cc1
inactive: [1] 95 % of control | dose: 200.0 mg/kg/injection, schedule: Q01DX009 (ip), vehicle: saline 117 % of control | dose: 400.0 mg/kg/injection, schedule: Q01DX009 (ip), vehicle: saline 91 % of control

Cc1ccc(S(=O)(=O)OCC2C3C=CC(C4C=CC43)C2COS(=O)(=O)c2ccc(C)cc2)cc1 (configuration not stated)
inactive: [11] 94 % of control | [12] 98 % of control | [13] 98 % of control

NC(=O)NC(=O)NC(N)=O
inactive: [11] 94 % of control | [12] 102 % of control | [13] 102 % of control

Cn1[nH]c(NC=O)c2cc3c(=O)[nH]c(=O)cc3nc21
inactive: dose: 100.0 mg/kg/injection, schedule: Q01DX001 (ip), vehicle: Klucel (hydroxypropylcellulose) (HPC) 93 % of control | dose: 200.0 mg/kg/injection, schedule: Q01DX001 (ip), vehicle: Klucel (hydroxypropylcellulose) (HPC) 90 % of control

CC(=O)CC(C)=Nc1cccc(N=C(C)CC(C)=O)c1
inactive: dose: 87.5 mg/kg/injection, schedule: Q04DX003 (ip), vehicle: saline with Tween-80 93 % of control | dose: 175.0 mg/kg/injection, schedule: Q04DX003 (ip), vehicle: saline with Tween-80 93 % of control | dose: 350.0 mg/kg/injection, schedule: Q04DX003 (ip), vehicle: saline with Tween-80 93 % of control

O=C(NC(NC(=O)c1ccc(Cl)cc1)C(Cl)(Cl)Cl)c1ccc(Cl)cc1
inactive: dose: 25.0 mg/kg/injection, schedule: Q01DX009 (ip), vehicle: saline with Tween-80 100 % of control | dose: 50.0 mg/kg/injection, schedule: Q01DX009 (ip), vehicle: saline with Tween-80 93 % of control | [8] 92 % of control | [6] 92 % of control

CC1CC2(C)C(CC1=O)CC(C)C1C3CCC(O)C3(C)CCC12 (configuration not stated)
inactive: [8] 92 % of control | [9] 96 % of control | [10] 94 % of control

CCc1ccc(/C(C#N)=C/c2ccc(N(C)C)cc2)cc1
inactive: dose: 25.0 mg/kg/injection, schedule: Q01DX009 (ip), vehicle: Klucel (hydroxypropylcellulose) (HPC) 100 % of control | dose: 50.0 mg/kg/injection, schedule: Q01DX009 (ip), vehicle: Klucel (hydroxypropylcellulose) (HPC) 91 % of control | [5] 96 % of control and 90 % of control

c1ccc(-c2csc3[n+]2CCN3)cc1
inactive: dose: 50.0 mg/kg/injection, schedule: Q01DX001 (ip), vehicle: saline 99 % of control

NNC(=O)Cc1ccc(Cl)c2ccccc12
inactive: [2] 104 % of control | [3] 91 % of control

CC[PH+]1c2ccccc2-c2ccccc21.CC[PH+]1c2ccccc2-c2ccccc21.CC[PH+]1c2ccccc2-c2ccccc21.[Br][Ni][Br]
inactive: dose: 12.5 mg/kg/injection, schedule: Q04DX003 (ip), vehicle: saline with Tween-80 98 % of control | dose: 25.0 mg/kg/injection, schedule: Q04DX003 (ip), vehicle: saline with Tween-80 98 % of control | dose: 50.0 mg/kg/injection, schedule: Q04DX003 (ip), vehicle: saline with Tween-80 102 % of control
